In brackets after ≈: the same amount, converted by molar mass. Several values for one entry are separate records, joined by “and”; a condition that tells them apart may be missing. Equal values may be shown once. Entries after “also recorded” stand apart in the source; their conditions may differ.
Legend:
[1] = system: protein translation in rabbit reticulocyte lysate; assay: Rescue of RM-A-inhibited in vitro translation by C-terminal truncated ScIleRS or its variants; settings: for Luciferase luminescence, 200 nM RM-A: replicates I-III
Procedure: (§1) After incubating at 30 °C for 1.5 h, 2.5 μL of the reaction was transferred to a 384-well plate and mixed with 25 μL of Luciferase Assay Reagent (Promega). The luminescence was read on a FlexStation 3 multimode microplate reader (Molecular Devices).

[2] = system: ovarian cancer and prostate cancer growth; settings: cited from earlier work
[3] = system: protein translation in rabbit reticulocyte lysate; assay: Rescue of RM-A-inhibited in vitro translation by C-terminal truncated human IleRS or its variants; settings: 200 nM RM-A; 3 μM C-terminal truncated human IleRS R459A
Procedure: as §1

[4] = cited from earlier work
[5] = system: ScIleRS Thr571 to Tyr or Arg variants; assay: TSA, ScIleRS with Thr571 mutated to Tyr or Arg; type: binding, Saccharomyces cerevisiae
Procedure: The binding of RM-A to IleRS and the impact of intermediate analogue (Ile-AMS, MedChemExpress) or substrates on binding were evaluated by the fluorescence-based thermal shift assay (TSA). Ligand binding usually stabilizes the protein during the thermal denaturation process, and tighter binding usually causes a larger positive shift in the protein melting temperature (Tm)[45]. Briefly, mixtures with a final volume of 20 μL containing 150 mM NaCl, 100 mM HEPES (pH 7.5), 10% glycerol, 5 mM DTT, 2 μg of IleRS, 4× SYPRO orange fluorescence dye (Sigma-Aldrich) and different ligands (50 μM RM-A, 2 mM L-isoleucine, 2 mM ATP, or 50 μM Ile-AMS) were prepared in 96-well plates. The mixtures were incubated at 25 °C for 10 min and then heated from 25 °C to 95 °C at a rate of 1 °C/min. The fluorescence intensity was recorded by a StepOnePlus Real-Time PCR instrument (Life Technologies), and the maximums of the first derivatives were determined to calculate Tm values. Each Tm value was an average of triple assays.

Candida albicans = system: Candida albicans; set-up: method as in PMID 1429226; settings: pH 3.0; cited from earlier work
[6] = system: other AARS family members (LeuRS, ValRS); settings: cited from earlier work
osteoclasts (OCs) = settings: cited from earlier work
[7] = system: protein translation in rabbit reticulocyte lysate; assay: In vitro translation assay of luciferase mRNA in rabbit reticulocyte lysate; settings: replicates I-III
Procedure: as §1

SMILES: CCCC[C@@]1(OC(=O)CCC(=O)O)CC[C@]2(CC[C@H](C)[C@@H](C/C=C(C)/C=C/[C@H](O)[C@@H](C)/C=C/C(=O)O)O2)O[C@H]1/C=C/C(C)=C/C(=O)O [RM-A, reveromycin A]
- protein translation rescued ([1]; 200 nM RM-A, 3 μM C-terminal truncated ScIleRS variant with 600GRKMSKSLK608 replaced by -GSGS-): approximately 80%
- Luciferase luminescence, 200 nM RM-A ([1]; 1 μM LeuRS (control)): 27.35 and 44.205 and 52.747
- Luciferase luminescence, 200 nM RM-A ([1]; 1 μM ScIleRS D527A): 63.694 and 45.571 and 34.895
- Luciferase luminescence, 200 nM RM-A ([1]; 1 μM ScIleRS F48A): 235.026 and 174.094 and 121.866
- Luciferase luminescence, 200 nM RM-A ([1]; 1 μM ScIleRS F48Y): 90.991 and 72.914 and 115.108
- Luciferase luminescence, 200 nM RM-A ([1]; 1 μM ScIleRS F191A): 156.784 and 298.475 and 281.964
- Luciferase luminescence, 200 nM RM-A ([1]; 1 μM ScIleRS P90A): 35.934 and 81.508 and 9.028
- Luciferase luminescence, 200 nM RM-A ([1]; 1 μM ScIleRS R454A): 2038.19 and 7956.68 and 7915.89
- Luciferase luminescence, 200 nM RM-A ([1]; 1 μM ScIleRS R460A): 63.694 and 82.028 and 79.355
- Luciferase luminescence, 200 nM RM-A ([1]; 1 μM ScIleRS R462A): 219.125 and 149.005 and 122.71
- Luciferase luminescence, 200 nM RM-A ([1]; 1 μM ScIleRS T572A): 2721.39 and 8649.69 and 8296.21
- Luciferase luminescence, 200 nM RM-A ([1]; 1 μM ScIleRS V89A): 11067.8 and 10750 and 22533.8
- Luciferase luminescence, 200 nM RM-A ([1]; 1 μM ScIleRS W402A): 203.886 and 487.005 and 223.56
- Luciferase luminescence, 200 nM RM-A ([1]; 1 μM ScIleRS W456A): 72.793 and 72.914 and 17.634
- Luciferase luminescence, 200 nM RM-A ([1]; 1 μM ScIleRS W529A): 72.281 and 54.7 and 8.724
- Luciferase luminescence, 200 nM RM-A ([1]; 1 μM ScIleRS Y571A): 36.141 and 88.172 and 61.066
- Luciferase luminescence, 200 nM RM-A ([1]; 1 μM ScIleRS del_KMSKS): 1832.65 and 1584.88 and 8043.93
- Luciferase luminescence, 200 nM RM-A ([1]; 3 μM C-terminal truncated ScIleRS Wild-type): 109159 and 108773 and 113203
- Luciferase luminescence, 200 nM RM-A ([1]; 3 μM LeuRS (control)): 68.753
- Luciferase luminescence, 200 nM RM-A ([1]; 3 μM ScIleRS D527A): 8750.65 and 7744.02 and 12892
- Luciferase luminescence, 200 nM RM-A ([1]; 3 μM ScIleRS F48A): 2036.32 and 2422.33 and 1991.71
- Luciferase luminescence, 200 nM RM-A ([1]; 3 μM ScIleRS F48Y): 94.913 and 96.194 and 77.119
- Luciferase luminescence, 200 nM RM-A ([1]; 3 μM ScIleRS F191A): 75050.4 and 67335.6 and 51978.3
- Luciferase luminescence, 200 nM RM-A ([1]; 3 μM ScIleRS P90A): 99 and 117.664 and 109.334
- Luciferase luminescence, 200 nM RM-A ([1]; 3 μM ScIleRS R454A): 116437 and 113410 and 111486
- Luciferase luminescence, 200 nM RM-A ([1]; 3 μM ScIleRS R460A): 1567.03 and 1752.95 and 2655.99
- Luciferase luminescence, 200 nM RM-A ([1]; 3 μM ScIleRS R462A): 27718.3 and 25034.8 and 41655.4
- Luciferase luminescence, 200 nM RM-A ([1]; 3 μM ScIleRS T572A): 111134 and 106950 and 105037
- Luciferase luminescence, 200 nM RM-A ([1]; 3 μM ScIleRS V89A): 100692 and 113636 and 118400
- Luciferase luminescence, 200 nM RM-A ([1]; 3 μM ScIleRS W402A): 50779.2 and 51210.1 and 59141.2
- Luciferase luminescence, 200 nM RM-A ([1]; 3 μM ScIleRS W449A): 115488 and 110666 and 106192
- Luciferase luminescence, 200 nM RM-A ([1]; 3 μM ScIleRS W456A): 51.771 and 96.194 and 77.119
- Luciferase luminescence, 200 nM RM-A ([1]; 3 μM ScIleRS W529A): 60.194 and 17.229 and 34.495
- Luciferase luminescence, 200 nM RM-A ([1]; 3 μM ScIleRS Y571A): 11774.7 and 10611.3 and 9010.55
- Luciferase luminescence, 200 nM RM-A ([1]; 3 μM ScIleRS del_KMSKS): 101448 and 100214 and 102556
- ovarian cancer and prostate cancer growth in vivo [2]: inhibit
- protein translation rescued [3]: about 1%
- bone loss in ovariectomized mice [4]: suppress bone loss
- binding of RM-A to ScIleRS variant (TSA) [5]: blocked the binding
- MIC (Candida albicans): 3 µM (≈ 1.98 µg/mL)
- inhibition of other AARS family members (LeuRS, ValRS) [6]: insensitive; also recorded: does not show significant inhibition
- apoptosis of osteoclasts (OCs) (osteoclasts (OCs)): potently induce the apoptosis
- more cytotoxic to OCs than to other types of cells, including OC progenitor cells (osteoclasts (OCs)): at least 100 times
- Luminescence (in vitro protein translation) ([7]; RM-A Conc 2 nM): 190845 and 181490 and 183251
- Luminescence (in vitro protein translation) ([7]; RM-A Conc 8 nM): 186149 and 190937 and 185903
- Luminescence (in vitro protein translation) ([7]; RM-A Conc 20 nM): 175716 and 187102 and 188453
- Luminescence (in vitro protein translation) ([7]; RM-A Conc 40 nM): 163497 and 184611 and 167689
- Luminescence (in vitro protein translation) ([7]; RM-A Conc 80 nM): 7616.05 and 18001.9 and 7173.32
- Luminescence (in vitro protein translation) ([7]; RM-A Conc 200 nM): 0 and 17.007 and 33.997
- Luminescence (in vitro protein translation) ([7]; RM-A Conc 800 nM): 17.076 and 8.503 and 25.498
- Luminescence (in vitro protein translation) ([7]; RM-A Conc 4000 nM): 0 (2×) and 50.995

Source: article PMC7955072 (Nature Communications, 2021)
